# Patent publication US10654917B2, “Antibody molecules and peptide delivery systems for use in alzheimer's disease and related disorders” (TECHNOPHAGE, INVESTIGAÇĀO E DESENVOLVIMENTO EM …, priority 2015, dated 2020)
# Read-outs that look alike come from different tables or passages of the source. Residues, ends and D or L forms follow the SMILES beside them. *: point of attachment. X1 = Cc1nn(CCN(CCN)CCCC(=O)*)c(C)c1CC(=O)O
# Legend:
# [1] = Partition coefficient (log Po/w) of radiopeptides; type: physicochemical
# Description: Table 7 lists each peptide's name, isoelectric point (PI), charge (number of positive residues), calculated mass (in Da), and ion found; as well as the name, calculated mass, and found ion for the corresponding conjugate; and also retention times in HPLC and the partition coefficient (log Po/w). These values allowed the determination of the hydrophilic nature of peptides, where pepH1 and pepH4 were identified as the most hydrophilic peptides.
# [2] = Biodistribution of technetium-labelled peptides; type: in vivo, CD1 mice
# Experimental: To evaluate the capacity to cross the BBB in vivo, the selected peptides, pepH1 and pepH3, were analyzed for biodistribution in CD1 mice. The peptides were labelled with technetium at a final concentration of 8.5×10^−5 M and diluted in PBS. CD1 mice were injected (iv injection, tail vein). The mice were sacrificed by cervical dislocation after 5 and 60 minutes of incubation. The tissues of interest were dissected and washed to remove excess blood, weighed, and measured for radioactivity. Technetium radioactivity of the different peptides was measured for different organs.
# Initial results are presented in Table 11, where “% I.A. refers to the “% injected activity”, that is, the amount of radioactivity measured in a given organ compared to the total originally injected.
# The biodistribution studies were repeated, using higher doses of each peptide, specifically, a one hundred fold increase, as well as using PepH2 as a negative control, and allowing incubation for 2 minutes and 60 minutes. Tissue biodistribution profile in percentage of injected radiopeptide activity per gram of tissue/organ was measured and results are presented in Table 12.
smiles,measurement,setting,value
"Cc1nn(CCN(CCN)CCCC(=O)N[C@H](C(=O)N[C@@H](CCC(N)=O)C(=O)N[C@@H](CCC(N)=O)C(=O)N[C@@H](CC(C)C)C(=O)N[C@H](C(=O)N[C@@H](CCCCN)C(=O)N[C@@H](CCCNC(=N)N)C(=O)N[C@@H](Cc2ccccc2)C(=O)N[C@@H](CO)C(=O)N[C@@H](CC(C)C)C(=O)O)[C@@H](C)O)C(C)C)c(C)c1CC(=O)O [^99mTc(CO)3-Pz^1-pepH1, metal not drawn] (X1-VQQLTKRFSL-OH; C-terminus assumed)",log Po/w of radiopeptides,[1],−1.76 ± 0.11
same,injected activity in Blood,"[2]; 140 μg/mouse, 1 hour",1.0 ± 0.2 % I.A./g
same,injected activity in Bone,"[2]; 140 μg/mouse, 1 hour",0.16 ± 0.01 % I.A./g
same,injected activity in Brain,"[2]; 140 μg/mouse, 1 hour",0.03 ± 0.00 % I.A./g
same,injected activity in Heart,"[2]; 140 μg/mouse, 1 hour",0.39 ± 0.02 % I.A./g
same,injected activity in Intestine,"[2]; 140 μg/mouse, 1 hour",13.0 ± 2.0 % I.A./g
same,injected activity in Kidney,"[2]; 140 μg/mouse, 1 hour",1.6 ± 0.3 % I.A./g
same,injected activity in Liver,"[2]; 140 μg/mouse, 1 hour",2.4 ± 1.0 % I.A./g
same,injected activity in Lung,"[2]; 140 μg/mouse, 1 hour",1.4 ± 0.3 % I.A./g
same,injected activity in Muscle,"[2]; 140 μg/mouse, 1 hour",0.2 ± 0.0 % I.A./g
same,injected activity in Spleen,"[2]; 140 μg/mouse, 1 hour",0.22 ± 0.01 % I.A./g
same,injected activity in Stomach,"[2]; 140 μg/mouse, 1 hour",0.31 ± 0.08 % I.A./g
same,tissue uptake at 2 min,"[2]; CD1, blood, iv, 140 ug/mouse, total radioactivity, 140 μg/mouse, 2 min, read-out: injected activity in Blood",3.1 ± 0.5 %ID/g
same,tissue uptake at 2 min,"[2]; CD1, bone, iv, 140 ug/mouse, total radioactivity, 140 μg/mouse, 2 min, read-out: injected activity in Bone",0.6 ± 0.2 %ID/g
same,tissue uptake at 2 min,"[2]; CD1, brain, iv, 140 ug/mouse, total radioactivity, 140 μg/mouse, 2 min, read-out: injected activity in Brain",0.11 ± 0.02 %ID/g
same,tissue uptake at 2 min,"[2]; CD1, heart, iv, 140 ug/mouse, total radioactivity, 140 μg/mouse, 2 min, read-out: injected activity in Heart",1.1 ± 0.4 %ID/g
same,dose excreted at 2 min,"[2]; CD1, in vivo, iv, 140 ug/mouse, total radioactivity, 140 μg/mouse, 2 min, read-out: Excretion",17.1 ± 7.9%
same,dose excreted at 1 h,"[2]; CD1, in vivo, iv, 140 ug/mouse, total radioactivity, 140 μg/mouse, 1 hour, read-out: Excretion",32.7 ± 0.2%
same,tissue uptake at 2 min,"[2]; CD1, intestine, iv, 140 ug/mouse, total radioactivity, 140 μg/mouse, 2 min, read-out: injected activity in Intestine",3.8 ± 2.3 %ID/g
same,tissue uptake at 2 min,"[2]; CD1, kidney, iv, 140 ug/mouse, total radioactivity, 140 μg/mouse, 2 min, read-out: injected activity in Kidney",14.6 ± 8.2 %ID/g
same,tissue uptake at 2 min,"[2]; CD1, liver, iv, 140 ug/mouse, total radioactivity, 140 μg/mouse, 2 min, read-out: injected activity in Liver",7 ± 1.1 %ID/g
same,tissue uptake at 2 min,"[2]; CD1, lung, iv, 140 ug/mouse, total radioactivity, 140 μg/mouse, 2 min, read-out: injected activity in Lung",2.6 ± 0.5 %ID/g
same,tissue uptake at 2 min,"[2]; CD1, muscle, iv, 140 ug/mouse, total radioactivity, 140 μg/mouse, 2 min, read-out: injected activity in Muscle",0.6 ± 0.2 %ID/g
same,tissue uptake at 2 min,"[2]; CD1, spleen, iv, 140 ug/mouse, total radioactivity, 140 μg/mouse, 2 min, read-out: injected activity in Spleen",0.7 ± 0.2 %ID/g
same,tissue uptake at 2 min,"[2]; CD1, stomach, iv, 140 ug/mouse, total radioactivity, 140 μg/mouse, 2 min, read-out: injected activity in Stomach",0.7 ± 0.4 %ID/g
same,tissue uptake at 5 min,"[2]; mouse, blood, 10 ug, total radioactivity, CD1 mice, iv, 5 min, 10 μg, read-out: injected activity in Blood",3.1 ± 0.5 %ID/g
same,tissue uptake at 1 h,"[2]; mouse, blood, 10 ug, total radioactivity, CD1 mice, iv, 1 hour, 10 μg, read-out: injected activity in Blood",1 ± 0.2 %ID/g
same,tissue uptake at 5 min,"[2]; mouse, bone, 10 ug, total radioactivity, CD1 mice, iv, 5 min, 10 μg, read-out: injected activity in Bone",0.6 ± 0.2 %ID/g
same,tissue uptake at 1 h,"[2]; mouse, bone, 10 ug, total radioactivity, CD1 mice, iv, 1 hour, 10 μg, read-out: injected activity in Bone",0.16 ± 0.01 %ID/g
same,tissue uptake at 5 min,"[2]; mouse, brain, 10 ug, total radioactivity, CD1 mice, iv, 5 min, 10 μg, read-out: injected activity in Brain",0.11 ± 0.02 %ID/g
same,tissue uptake at 1 h,"[2]; mouse, brain, 10 ug, total radioactivity, CD1 mice, iv, 1 hour, 10 μg, read-out: injected activity in Brain",0.03 %ID/g
same,tissue uptake at 5 min,"[2]; mouse, heart, 10 ug, total radioactivity, CD1 mice, iv, 5 min, 10 μg, read-out: injected activity in Heart",1.1 ± 0.4 %ID/g
same,tissue uptake at 1 h,"[2]; mouse, heart, 10 ug, total radioactivity, CD1 mice, iv, 1 hour, 10 μg, read-out: injected activity in Heart",0.39 ± 0.02 %ID/g
same,percent of injected dose excreted at 5 min,"[2]; mouse, in vivo, 10 ug, total radioactivity, CD1 mice, iv, 5 min, 10 μg, read-out: Excretion",17.1 ± 7.9 %ID
same,percent of injected dose excreted at 1 h,"[2]; mouse, in vivo, 10 ug, total radioactivity, CD1 mice, iv, 1 hour, 10 μg, read-out: Excretion",32.7 ± 0.2 %ID
same,tissue uptake at 5 min,"[2]; mouse, intestine, 10 ug, total radioactivity, CD1 mice, iv, 5 min, 10 μg, read-out: injected activity in Intestine",3.8 ± 2.3 %ID/g
same,tissue uptake at 1 h,"[2]; mouse, intestine, 10 ug, total radioactivity, CD1 mice, iv, 1 hour, 10 μg, read-out: injected activity in Intestine",13 ± 2 %ID/g
same,tissue uptake at 5 min,"[2]; mouse, kidney, 10 ug, total radioactivity, CD1 mice, iv, 5 min, 10 μg, read-out: injected activity in Kidney",14.6 ± 8.2 %ID/g
same,tissue uptake at 1 h,"[2]; mouse, kidney, 10 ug, total radioactivity, CD1 mice, iv, 1 hour, 10 μg, read-out: injected activity in Kidney",1.6 ± 0.3 %ID/g
same,tissue uptake at 5 min,"[2]; mouse, liver, 10 ug, total radioactivity, CD1 mice, iv, 5 min, 10 μg, read-out: injected activity in Liver",7 ± 1.1 %ID/g
same,tissue uptake at 1 h,"[2]; mouse, liver, 10 ug, total radioactivity, CD1 mice, iv, 1 hour, 10 μg, read-out: injected activity in Liver",2.4 ± 1 %ID/g
same,tissue uptake at 5 min,"[2]; mouse, lung, 10 ug, total radioactivity, CD1 mice, iv, 5 min, 10 μg, read-out: injected activity in Lung",2.6 ± 0.5 %ID/g
same,tissue uptake at 1 h,"[2]; mouse, lung, 10 ug, total radioactivity, CD1 mice, iv, 1 hour, 10 μg, read-out: injected activity in Lung",1.4 ± 0.3 %ID/g
same,tissue uptake at 5 min,"[2]; mouse, muscle, 10 ug, total radioactivity, CD1 mice, iv, 5 min, 10 μg, read-out: injected activity in Muscle",0.6 ± 0.2 %ID/g
same,tissue uptake at 1 h,"[2]; mouse, muscle, 10 ug, total radioactivity, CD1 mice, iv, 1 hour, 10 μg, read-out: injected activity in Muscle",0.2 %ID/g
same,tissue uptake at 5 min,"[2]; mouse, pancreas, 10 ug, total radioactivity, CD1 mice, iv, 5 min, 10 μg, read-out: injected activity in Pancreas",0.8 ± 0.2 %ID/g
same,tissue uptake at 1 h,"[2]; mouse, pancreas, 10 ug, total radioactivity, CD1 mice, iv, 1 hour, 10 μg, read-out: injected activity in Pancreas",0.41 ± 0.01 %ID/g
same,tissue uptake at 5 min,"[2]; mouse, spleen, 10 ug, total radioactivity, CD1 mice, iv, 5 min, 10 μg, read-out: injected activity in Spleen",0.7 ± 0.2 %ID/g
same,tissue uptake at 1 h,"[2]; mouse, spleen, 10 ug, total radioactivity, CD1 mice, iv, 1 hour, 10 μg, read-out: injected activity in Spleen",0.22 ± 0.01 %ID/g
same,tissue uptake at 5 min,"[2]; mouse, stomach, 10 ug, total radioactivity, CD1 mice, iv, 5 min, 10 μg, read-out: injected activity in Stomach",0.7 ± 0.4 %ID/g
same,tissue uptake at 1 h,"[2]; mouse, stomach, 10 ug, total radioactivity, CD1 mice, iv, 1 hour, 10 μg, read-out: injected activity in Stomach",0.31 ± 0.08 %ID/g
